The text below walks through data of US9347937B2, “Vaccine comprising Amb a 1 peptides for use in the treatment of ragweed allergy” (Circassia Limited, priority 2008, dated 2016).

No end group written: not given here.

Series [1] deals with blood basophils from ragweed allergic subjects. The series is described as follows: Histamine release assay (Immunotech Histamine Release Immunoassay kit). The conditions noted are these: for Subjects with histamine release >15% of positive control: 43 or 20 subjects, highest dose tested 10 μg/ml. Here is the method: Peptides or combinations of peptides that induce histamine release frequently may be considered unsuitable for inclusion in the peptide vaccine.
Histamine release requires the crosslinking of adjacent specific IgE molecules on the surface of the basophil.
Histamine release from fresh peripheral whole blood from ragweed allergic subjects was evaluated. Peripheral blood basophils were used as a surrogate for tissue mast cells which were not practical to assay.
Histamine release in response to whole ragweed allergen extract was measured in each subject to confirm basophil sensitisation. A positive control, representing total histamine release, generated by freeze/thawing the cells twice, was included in each assay. A negative control for spontaneous histamine release was generated by incubating cells in buffer only.
The assay was performed using the Immunotech Histamine Release Immunoassay kit according to the manufacturer's instructions. Following the in vitro challenge of blood basophils with peptides, peptide mixes, whole allergen or buffer in microtitre plate wells, supernatants were removed and the histamine in the samples converted to acyl histamine. Acylated samples were tested by a competitive acyl histamine ELISA.
Peptides were assayed for their ability to induce histamine release over a 5 log 10 range (1 to 10,000 ng/ml). The concentration range assayed was selected based on theoretical in vivo doses of peptide that may be achieved during therapy. […] Whole ragweed allergen extract was used over a slightly higher concentration range (10 to 100,000 ng/ml).
Single measurements were performed for each dilution. After completion of the ELISA, individual histamine levels were determined by interpolation from the standard curve generated in the ELISA assay. Results from samples were adjusted to allow for dilution.

Series [2] in a line: In vitro solubility testing in an acidic environment. It counts as physicochemical. Here is the method:
Accordingly, the inventors have determined that RGW03B is preferred over RGW03.
The modified peptides were tested for solubility and their ability to induce IL-10 from PBMC in the presence of the mixture of peptides identified in FIG. 1 (RGW01+RGW03B+RGW04A+RGW02+RGW05+RGW06A). Controls included the peptide mixture with no RGW07 variant and with whole Amb a 1 allergen.

Where [3] appears, read: pH 2.97, Table 6, RGW07 and variants, acidic environment.
[4] abbreviates: pH 2.97 0.1 mM HCl, 0.5% (w/v) 1-thioglycerol (ca. 46 mM), 230 mM trehalose.

For GMIKSNDGPPI [RGW01], in series [1], the “Maximum histamine release (% of positive control at 10 μg/mL)” value was 0%, the “Mean histamine release of 43 or 20 subjects as a % of positive control at 10 μg/mL” value was found to be 1% and the “Subjects with histamine release >15% of positive control” value is 0/43.

In general, solubility refers to the dissolved amount per volume that the medium holds. Read a low solubility as a poorly soluble substance. KGEAAIKLTSSAGVLSK [RGW07C] showed a solubility in series [2] (setting [3]) of 1550 µg/mL.

Take RDLLENGAIFLPSG [RGW03B]: the solubility in series [2] (setting [4]) was 3850 µg/mL. In series [1], the “Maximum histamine release (% of positive control at 10 μg/mL)” value came to 0%, the “Mean histamine release of 43 or 20 subjects as a % of positive control at 10 μg/mL” value is 1% and the “Subjects with histamine release >15% of positive control” value is reported as 0/43.

On to GEAAIKLTSSAGVLS [RGW07], for which the “solubility in an acidic environment” value in series [2] (acidic environment) is listed as “poor solubility”. The same sequence gave a solubility in series [2] (setting [3]) of 700 µg/mL. Also, in series [1], the “Maximum histamine release (% of positive control at 10 μg/mL)” value is reported as 0%, the “Mean histamine release of 43 or 20 subjects as a % of positive control at 10 μg/mL” value stood at 1% and the “Subjects with histamine release >15% of positive control” value is listed as 0/43.

Take KEGTLRFAAAQNRP [RGW05]: in series [1], the “Maximum histamine release (% of positive control at 10 μg/mL)” value came to 0%, the “Mean histamine release of 43 or 20 subjects as a % of positive control at 10 μg/mL” value is reported as 0% and the “Subjects with histamine release >15% of positive control” value is recorded as 0/43.

The sequence KDLLENGAIFVTSG [RGW03] registered a solubility in series [2] (setting [4]) below 620 µg/mL.

AINNDKTIDGRGAKVE [RGW06A]: in series [1], the “Maximum histamine release (% of positive control at 10 μg/mL)” value is 0%, the “Mean histamine release of 43 or 20 subjects as a % of positive control at 10 μg/mL” value is 1% and the “Subjects with histamine release >15% of positive control” value is recorded as 0/43.

Regarding SAGMIPAEPGEA [RGW04A], in series [1], the “Maximum histamine release (% of positive control at 10 μg/mL)” value turned out to be 0%, the “Mean histamine release of 43 or 20 subjects as a % of positive control at 10 μg/mL” value was found to be 0% and the “Subjects with histamine release >15% of positive control” value was 0/43.

KGEAAIKLTSSAGVLSKK [RGW07D] yielded a solubility in series [2] (setting [3]) of 4260 µg/mL. In series [1], the “Maximum histamine release (% of positive control at 10 μg/mL)” value was determined as 0%, the “Mean histamine release of 43 or 20 subjects as a % of positive control at 10 μg/mL” value amounted to 3% and the “Subjects with histamine release >15% of positive control” value is given as 0/20.

On to GSSQIWIDHSSLSKS [RGW02], for which, in series [1], the “Maximum histamine release (% of positive control at 10 μg/mL)” value worked out at 0%, the “Mean histamine release of 43 or 20 subjects as a % of positive control at 10 μg/mL” value is listed as 1% and the “Subjects with histamine release >15% of positive control” value is on record as 0/43.
